Measurements published in patent US20080249105A1, “Pyrrolopyridine-Substituted Benzol Derivatives for Treating Cardiovascular Diseases” (Bayer Healthcare AG, priority 2003, published 2008).
pIC50: −log10 of the molar value.

Biological target: T1, Rho kinase II (ROKα) (Rattus norvegicus, UniProt Q62868)
T1 construct: purchased Upstate Biotechnology
Assay: Inhibition of recombinant Rho kinase II (ROKα), 33P phosphate uptake into S6 substrate peptide
Format: biochemical
Details: recombinant Rho kinase II (Upstate Biotechnology), S6 phosphate-acceptor peptide, 33P-labelled ATP, 20 min at 37° C.
Procedure: The inhibition of the enzyme is investigated in an in vitro assay with recombinant Rho kinase II. The vessel-relaxing action is determined using phenylephrin-induced contractions of isolated rings of the saphenous artery of rabbits.
Inhibition of Recombinant Rho Kinase II (ROKα)
The activity of Rho kinase is determined by the uptake of ^33P phosphate into a substrate peptide. To this end, commercially available Rho kinase II (Upstate Biotechnology) is pre-incubated at 37° C. in the presence of the S6 phosphate-acceptor peptide with the test substances or a solvent control for 10 min. The kinase reaction is then started by addition of ^33P-labelled ATP. After 20 min at 37° C., the reaction is stopped by addition of H3PO4. Aliquots are pipetted onto filters and the filters are washed and then covered with scintillator. The radioactivity of the ^33P-labelled peptides bound to the filter is measured in a Micro-Beta counter. The IC50 value corresponds to the concentration of a test substance at which the Rho-kinase-catalysed uptake of ^33P into the peptide is inhibited by 50%, compared to a solvent control.

T1 sequence (Q62868 whole entry): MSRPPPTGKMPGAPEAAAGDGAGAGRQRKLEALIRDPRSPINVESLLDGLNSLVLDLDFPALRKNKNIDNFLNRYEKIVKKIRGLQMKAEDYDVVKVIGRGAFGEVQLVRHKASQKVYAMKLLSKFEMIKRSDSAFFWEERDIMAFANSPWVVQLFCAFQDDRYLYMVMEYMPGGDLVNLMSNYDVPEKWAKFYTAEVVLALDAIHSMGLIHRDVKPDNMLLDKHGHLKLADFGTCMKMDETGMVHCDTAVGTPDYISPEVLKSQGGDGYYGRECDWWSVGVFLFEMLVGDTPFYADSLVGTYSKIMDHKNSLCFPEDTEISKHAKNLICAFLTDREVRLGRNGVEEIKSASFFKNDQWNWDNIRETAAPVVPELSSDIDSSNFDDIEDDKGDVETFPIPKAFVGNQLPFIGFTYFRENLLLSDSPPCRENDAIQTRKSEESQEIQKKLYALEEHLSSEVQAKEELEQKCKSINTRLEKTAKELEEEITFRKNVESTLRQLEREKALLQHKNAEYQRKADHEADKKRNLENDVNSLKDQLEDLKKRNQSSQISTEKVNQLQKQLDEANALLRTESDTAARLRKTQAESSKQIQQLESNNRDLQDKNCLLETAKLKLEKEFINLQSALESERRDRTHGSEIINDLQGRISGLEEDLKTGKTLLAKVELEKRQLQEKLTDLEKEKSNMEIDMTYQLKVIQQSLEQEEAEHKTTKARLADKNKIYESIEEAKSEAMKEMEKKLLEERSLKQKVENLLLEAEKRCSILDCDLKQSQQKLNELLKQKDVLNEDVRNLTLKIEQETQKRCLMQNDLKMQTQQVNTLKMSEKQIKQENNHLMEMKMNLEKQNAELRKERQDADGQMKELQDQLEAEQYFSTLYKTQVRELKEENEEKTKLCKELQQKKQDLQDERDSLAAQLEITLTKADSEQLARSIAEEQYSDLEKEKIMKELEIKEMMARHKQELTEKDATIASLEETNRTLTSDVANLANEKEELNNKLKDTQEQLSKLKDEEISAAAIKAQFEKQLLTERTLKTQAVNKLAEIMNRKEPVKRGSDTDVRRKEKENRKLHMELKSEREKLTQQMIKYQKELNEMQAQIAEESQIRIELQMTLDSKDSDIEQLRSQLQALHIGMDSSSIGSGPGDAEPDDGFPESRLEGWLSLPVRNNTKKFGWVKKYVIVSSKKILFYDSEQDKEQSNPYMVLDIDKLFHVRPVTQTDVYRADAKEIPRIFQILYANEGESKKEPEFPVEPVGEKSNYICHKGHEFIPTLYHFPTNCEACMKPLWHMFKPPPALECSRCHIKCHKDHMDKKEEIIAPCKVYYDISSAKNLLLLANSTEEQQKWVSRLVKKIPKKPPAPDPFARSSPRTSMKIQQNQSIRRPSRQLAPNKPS

| Structure (SMILES) | pIC50 |
| --- | --- |
| CC(C)(C)NCc1ccc(C(=O)Nc2ccc(Oc3ccnc4[nH]ccc34)c(F)c2)cc1 [Example 15] | 7.31 |
| Cc1c[nH]c2nccc(Oc3ccc(NC(=O)CNC(C)(C)C)cc3F)c12 [Example 23] | 7.92 |
| CN(C)CCNC(=O)Nc1ccc(Oc2ccnc3[nH]ccc23)c(F)c1 [Example 40] | 7.57 |
| CN(C)CCOC(=O)Nc1ccc(Oc2ccnc3[nH]ccc23)c(F)c1 [Example 41] | 7.70 |
